For data set [1], the system named is taenia coli of guinea pigs, depolarized, stimulated with CaCl2. Nature of the data set: Antagonistic activity to calcium in the taenia coli of guinea pigs (in vitro). Type of data set: cell-based, Hartley albino guinea pigs. The settings on record: for IC50: Cavia porcellus, read-out: Ca--antagonistic activity in vitro ED50. As for the experimental part: Hartley albino guinea pigs of average weight 450 g are used. […] The compounds are allowed to stand in contact with the preparation for ten minutes. The activities ED50 are calculated from the maximum percentage of inhibition.

A short description of data set [2]: in vivo. The settings on record: mouse, iv. How it is done: Male CD1 mice from Charles River, weighing 25 g, are used. Compounds are administered intravenously (i.v.), dissolved in dimethylsulfoxide, and the volume of administration is 0.01 ml/10 g of body weight. The lethal dose, LD50 after seven days, is calculated according to the method of Litchfield and Wilcoxon (Exp. Ther. 96, 99 (1949)).

[3] abbreviates: taenia coli, CaCl2 10^-3 M, ten minutes contact, from maximum percentage of inhibition (for 0265B, 0246B, 0247B, 0270B, 0224A independent of time of appearance).

Read-outs that look alike come from different tables or passages of the source. Where only a bound is given, the exact number is not on record here.

In general, LD50 refers to the dose at which mortality reaches 50%. For `COC(=O)C1=C(C)NC(C)=C(C(C)=NOCCN(C)Cc2ccccc2)C1c1cccc([N+](=O)[O-])c1` (centres unmarked) [0224A, Methyl 2,6-dimethyl-3-[1-(2-N-benzyl-N-methylamino)ethoxy-imino]ethyl-4-(3-nitrophenyl)-1,4-dihydropyridin-5-carboxylate], the IC50 in data set [1] (setting [3]) amounted to 18 nM. Also, in data set [1] (taenia coli), the “inhibition of contractions due to CaCl2 after repeated washing of the tissue” value (shortened to “inhibition of contractions due to CaCl2”) is given as “increases progressively in spite of repeated washing of the tissue”. The compound further registered a 50% lethal dose (LD50) at 168 h in data set [2] of 3.3 mg/kg.

In the case of `COC(=O)C1=C(C)NC(C)=C(C(C)=NO)C1c1cccc([N+](=O)[O-])c1` (centres unmarked) [0227A, Methyl 2,6-dimethyl-3-(1-hydroxyimino)ethyl-4-(3-nitrophenyl)-1,4-dihydropyridine-5-carboxylate], in data set [1] (setting [3]), the IC50 is 270 nM. Further, the 50% lethal dose (LD50) at 168 h in data set [2] came out at 15.2 mg/kg.

With `CCOC(=O)CON=C(C)C1=C(C)NC(C)=C(C(=O)OC)C1c1cccc([N+](=O)[O-])c1` (centres unmarked) [0234A, Methyl 2,6-dimethyl-3-[1-(ethoxycarbonyl)methoxyimino]ethyl-4-(3-nitrophenyl)-1,4-dihydro-pyridin-5-carboxylate], the IC50 in data set [1] (setting [3]) was found to be 29 nM. The compound further returned a 50% lethal dose (LD50) at 168 h in data set [2] of 17.3 mg/kg.

`CCON=C(C)C1=C(C)NC(C)=C(C(=O)OC)C1c1cccc([N+](=O)[O-])c1` (centres unmarked) [0235A, Methyl 2,6-dimethyl-3-(1-ethoxyimino)ethyl-4-(3-nitrophenyl)-1,4-dihydropyridin-5-carboxylate]: the IC50 in data set [1] (setting [3]) was found to be 7.4 nM. In data set [2], the LD50 at 168 h was found to be 30.6 mg/kg.

As to `C=CCON=C(C)C1=C(C)NC(C)=C(C(=O)OC)C1c1cccc([N+](=O)[O-])c1` (centres unmarked) [0245B], in data set [1] (setting [3]), the IC50 turned out to be 4.7 nM. The compound further came in with a 50% lethal dose (LD50) at 168 h in data set [2] of 35.4 mg/kg.

As for `CCCCON=C(C)C1=C(C)NC(C)=C(C(=O)OC)C1c1cccc([N+](=O)[O-])c1` (centres unmarked) [0246B], the IC50 in data set [1] (setting [3]) was found to be 7 nM. For the same compound, the “inhibition of contractions due to CaCl2” value in data set [1] (taenia coli) is reported as “increases progressively in spite of repeated washing of the tissue”. The compound also displayed a 50% lethal dose (LD50) at 168 h in data set [2] of 37.5 mg/kg.

On to `COC(=O)C1=C(C)NC(C)=C(C(C)=NOCc2ccccc2)C1c1cccc([N+](=O)[O-])c1` (centres unmarked) [0247B], for which, in data set [1] (setting [3]), the IC50 was determined as 4.8 nM. Besides, the “inhibition of contractions due to CaCl2” value in data set [1] (taenia coli) is listed as “increases progressively in spite of repeated washing of the tissue”. In addition, the median lethal dose (LD50) at 168 h in data set [2] is 28.9 mg/kg.

As to `CON=C(C)C1=C(C)NC(C)=C(C(=O)OC)C1c1cccc([N+](=O)[O-])c1` (centres unmarked) [0251A, Methyl 2,6-dimethyl-3-(1-methoxyimino)ethyl-4-(3-nitrophenyl)-1,4-dihydropyridin-5-carboxylate], the IC50 in data set [1] (setting [3]) turned out to be 26 nM. The compound also displayed an LD50 at 168 h in data set [2] of 27.3 mg/kg.

`CCOCCON=C(C)C1=C(C)NC(C)=C(C(=O)OC)C1c1cccc([N+](=O)[O-])c1` (centres unmarked) [0254B]: the IC50 in data set [1] (setting [3]) is 5.9 nM. This compound also registered a median lethal dose (LD50) at 168 h in data set [2] of 35 mg/kg.

On to `COC(=O)C1=C(C)NC(C)=C(C(C)=NOC(C)C)C1c1cccc([N+](=O)[O-])c1` (centres unmarked) [0265B], for which the IC50 in data set [1] (setting [3]) worked out at 4.4 nM. In addition, in data set [1] (taenia coli), the “inhibition of contractions due to CaCl2” value is reported as “increases progressively in spite of repeated washing of the tissue”. The compound also showed an LD50 at 168 h in data set [2] of 27.6 mg/kg.

For `COC(=O)C1=C(C)NC(C)=C(C(C)=NOC2CCCC2)C1c1cccc([N+](=O)[O-])c1` (centres unmarked) [0270B], the IC50 in data set [1] (setting [3]) was determined as 5.6 nM. Moreover, in data set [1] (taenia coli), the “inhibition of contractions due to CaCl2” value is given as “increases progressively in spite of repeated washing of the tissue”. The 50% lethal dose (LD50) at 168 h in data set [2] was found to be 70.3 mg/kg.

Turning to `COC(=O)C1=C(C)NC(C)=C(C(C)=NOCCN(C)C)C1c1cccc([N+](=O)[O-])c1` (centres unmarked) [0274B], the IC50 in data set [1] (setting [3]) worked out at 510 nM. Also, the median lethal dose (LD50) at 168 h in data set [2] amounted to 38.3 mg/kg.

For `COC(=O)C1=C(C)NC(C)=C(C(C)=NOCCN2CCCCC2)C1c1cccc([N+](=O)[O-])c1` (centres unmarked) [0276B], the IC50 in data set [1] (setting [3]) came to 220 nM. Moreover, the median lethal dose (LD50) at 168 h in data set [2] turned out to be 22.7 mg/kg.

`CCOCCON=C(COC)C1=C(C)NC(C)=C(C(=O)OC)C1c1cccc([N+](=O)[O-])c1` (centres unmarked) [0286C]: the IC50 in data set [1] (setting [3]) is 370 nM. The compound also came in with an LD50 at 168 h in data set [2] of more than 160 mg/kg.

Turning to `COC(=O)C1=C(C)NC(C)=C(C(=O)OCCN(C)Cc2ccccc2)C1c1cccc([N+](=O)[O-])c1` (centres unmarked) [Nicardipine, reference compound], the IC50 in data set [1] (setting [3]) stood at 2.3 nM. In addition, in data set [2], the median lethal dose (LD50) at 168 h amounted to 17.4 mg/kg.

With `COC(=O)C1=C(C)NC(C)=C(C(=O)OC)C1c1ccccc1[N+](=O)[O-]` [Nifedipine, reference compound], the IC50 in data set [1] is 2.6 nM.

As for `CCOC(=O)C1=C(C)NC(C)=C(C(=O)OC)C1c1cccc([N+](=O)[O-])c1` (centres unmarked) [Nitrendipine, reference compound], the IC50 in data set [1] (setting [3]) is 1.9 nM. In data set [2], this compound registered an LD50 at 168 h of 34.5 mg/kg.

For the origin of these results see patent US4508719A, “Hydroxyimino and alkoxyimino derivatives of 1,4-dihydropyridine and anti-hypertensive compositions” (Pierrel S.p.A., priority 1982, dated 1985).
